Where a SMILES comes first, the peptide text is derived from it. Bridges are numbered along the chain shown (N, C = ends). [ ]: non-standard residue; d: D form.
What was measured:
Mu-type opioid receptor = Mu-type opioid receptor (Homo sapiens, UniProt P35372); test: Displacement of [3H]DAMGO from recombinant human mu opioid receptor expressed in CHO cell membranes after 120 mins by liquid scintillation counter analysis
[1] = target: Delta-type opioid receptor (Homo sapiens, UniProt P41143); test: Displacement of [3H]deltorphin-2 from recombinant human delta opioid receptor expressed in CHO cell membranes after 120 mins by liquid scintillation counter analysis
[2] = target: Kappa-type opioid receptor (Homo sapiens, UniProt P41145); test: Displacement of [3H]U-69593 from recombinant human kappa opioid receptor expressed in CHO cell membranes after 120 mins by liquid scintillation counter analysis
Chain of Kappa-type opioid receptor (P41145 whole entry): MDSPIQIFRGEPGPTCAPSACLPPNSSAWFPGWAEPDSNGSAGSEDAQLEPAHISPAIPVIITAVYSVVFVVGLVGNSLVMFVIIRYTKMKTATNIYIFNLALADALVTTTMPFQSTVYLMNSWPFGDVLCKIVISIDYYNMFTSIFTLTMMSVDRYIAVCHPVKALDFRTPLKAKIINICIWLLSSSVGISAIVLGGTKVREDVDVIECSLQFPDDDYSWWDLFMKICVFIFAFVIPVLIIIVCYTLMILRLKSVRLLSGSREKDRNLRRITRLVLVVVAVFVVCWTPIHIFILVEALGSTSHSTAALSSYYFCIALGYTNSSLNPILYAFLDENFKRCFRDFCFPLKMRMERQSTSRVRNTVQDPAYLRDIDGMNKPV

Chain of Mu-type opioid receptor (P35372 whole entry): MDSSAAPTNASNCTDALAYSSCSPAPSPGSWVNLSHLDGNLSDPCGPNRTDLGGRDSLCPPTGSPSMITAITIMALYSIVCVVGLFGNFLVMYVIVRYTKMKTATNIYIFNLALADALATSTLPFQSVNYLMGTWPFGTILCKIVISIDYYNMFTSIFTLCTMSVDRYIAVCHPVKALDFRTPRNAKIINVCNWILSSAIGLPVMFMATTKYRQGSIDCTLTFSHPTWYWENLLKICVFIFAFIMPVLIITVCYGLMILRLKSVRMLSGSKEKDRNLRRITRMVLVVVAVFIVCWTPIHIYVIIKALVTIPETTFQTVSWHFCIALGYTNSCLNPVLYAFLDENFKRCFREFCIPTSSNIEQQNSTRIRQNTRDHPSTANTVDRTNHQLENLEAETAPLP
Chain of Delta-type opioid receptor (P41143 whole entry): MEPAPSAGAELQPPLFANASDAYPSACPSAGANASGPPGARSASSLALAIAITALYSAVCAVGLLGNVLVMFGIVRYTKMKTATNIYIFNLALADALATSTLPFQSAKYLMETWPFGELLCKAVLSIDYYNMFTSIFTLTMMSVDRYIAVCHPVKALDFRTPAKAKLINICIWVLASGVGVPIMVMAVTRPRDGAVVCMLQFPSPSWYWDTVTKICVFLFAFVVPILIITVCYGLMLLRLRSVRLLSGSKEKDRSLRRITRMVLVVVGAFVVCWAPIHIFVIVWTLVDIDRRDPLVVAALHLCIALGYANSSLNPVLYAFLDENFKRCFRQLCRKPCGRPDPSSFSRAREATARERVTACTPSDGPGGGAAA

Compound | Ki (Mu-type opioid receptor) | Ki [1] | Ki [2]
NC(=O)[C@@H]1CC(=O)NCCCC[C@@H](NC(=O)[C@@H](N)Cc2ccc(O)cc2)C(=O)N[C@@H](Cc2ccccc2)C(=O)N2CCC(CC2)C(=O)N1 | 1.15 nM | 76.7 nM | 5460 nM
NC(=O)[C@@H]1CC(=O)NCCCC[C@@H](NC(=O)[C@@H](N)Cc2ccc(O)cc2)C(=O)N[C@@H](Cc2ccccc2)C(=O)N2CCC[C@H]2C(=O)N1 | 0.46 nM | 85.5 nM | 884 nM
NC(=O)[C@@H]1CC(=O)NCCCC[C@@H](NC(=O)[C@@H](N)Cc2ccc(O)cc2)C(=O)N[C@@H](Cc2ccccc2)C(=O)N2CCC[C@H](C2)C(=O)N1 | 0.9 nM | 67 nM | 4620 nM
NC(=O)[C@@H]1CC(=O)NCCCC[C@@H](NC(=O)[C@@H](N)Cc2ccc(O)cc2)C(=O)N[C@@H](Cc2ccccc2)C(=O)N[C@@H](Cc2ccccc2)C(=O)N1 (H-Y[dK]FFD-NH2; lactam 2-5) | 0.56 nM | 279 nM | 2.36 nM
NC(=O)[C@@H]1CC(=O)NCCCC[C@@H](NC(=O)[C@@H](N)Cc2ccc(O)cc2)C(=O)N[C@@H](Cc2ccccc2)C(=O)N2CCCC[C@H]2C(=O)N1 | 3.16 nM | 49.6 nM | 6720 nM
